Source: patent US20060067924A1, “Probiotic bacteria and methods” (priority 2003, published 2006)
Entries after “also recorded” stand apart in the source; their conditions may differ.

Key:
cecum flora = assay: 16S rDNA clone library analysis of the cecum flora, monensin treatment; type: in vivo, chicken; settings: 28 d
[1] = system: Lachnospira multiparus-like organisms; settings: monensin supplementation; cited from earlier work
[2] = system: bacterial community of the chicken ileum; assay: T-RFLP analysis (HaeIII) of amplified 16S rDNA from the ileum of chickens fed different diets; type: in vivo; settings: for main bacterial composition present in TRFLP peaks in ileum: names in order of relative abundance of peaks; for Clostridiales, % peak areas / Lactobacillaceae, % peak areas: T-RFLP
Protocol: A comparative study of bacterial community of the chicken ileum was carried out using 16S rDNA gene analysis. The intestinal microbiota is part of a complex ecosystem. This study examined the effect of the growth promoting antibiotic, virginiamycin, and other commercial diets on the distribution and community structure of intestinal bacterial flora. Bacterial communities in the intestines of chickens were compared using terminal restriction fragment length polymorphism (T-RFLP) analysis targeting the 16S ribosomal DNA combining with 16S rDNA cloning library. The chickens were fed 4 different diets including a commercial corn-soy diet, corn-soy plus growth promotant diet, corn-soy plus monensin, and a wheat diet. A group was also administrated a probiotic at 1 day age and fed a corn-soy diet. After feeding of the birds with the experimental diets, the differences in the bacterial community structures in the ileum were detected in the form of different profiles of terminal restriction fragments (T-RFs). Some of the T-RFs were commonly distributed, i.e., they were found in all samples, while others varied in distribution and correlated with specific diets. Significant differences were found between the control group (corn-soy diet) and the experimental groups by pairwise-analyzing the T-RFs=profiles.
The bacterial populations are identified using genetic analysis of the 16S RNA gene by GeneScan-Terminal Restriction Fragment Length Polymorphism (T-RFLP) using 16S universal primers and cloning and DNA sequencing of 16S PCR products. GeneScan T-RFLP requires the following steps: labeling the PCR product by using labeled primers; digesting the PCR product with restriction enzymes; separating fragments on gel; and detecting terminal fragments. The sizes of terminal fragments can be calculated based on DNA sequence analysis.
In some experiments, the PCR products were loaded onto a gel from which bands were cut and eluted in 35 μl of sterile filtered distilled water using a QIAquick gel extraction kit (Qiagen, Chatsworth, Calif.). The concentrations of the fluorescently labeled PCR products were measured on a spectrophotometer (DU Series 500, Beckman, Fullerton, Calif.). About 100 ng of purified PCR products was digested in a 10 μl volume for 4 hours at 37 C with 10 U of HaeIII (isoschizomer BsuRI; Fermentas, MBI). Restriction digests were desalted with the QIAquick Nucleotide Removal Kit (Qiagen). The fluorescently labeled terminal restriction fragments (T-RFs) were analyzed by electrophoresis on an automatic sequence analyzer (ABI PRISM 310 DNA Sequencer; PE Biosystems, Foster City, Calif.) in GeneScan mode. Aliquots (2 ul) of T-RFs were mixed with 2 μl of deionized formamide, 0.5 μl of DNA fragment length size standard GS-500 (PE Biosystems). The T-RF mixture was denatured at 94° C. for 5 min and immediately chilled on ice prior to electrophoresis. After electrophoresis, the lengths of fluorescently labeled T-RFs were determined by comparison with internal standards by using GeneScan software (ABI). For each sample, peaks over a threshold of 50 units above background fluorescence were analyzed by manually aligning fragments to the size standard. To avoid detection of primers and uncertainties of size determination, terminal fragments smaller than 35 bp and larger than 525 bp were excluded from the analysis. Reproducibility of patterns was confirmed for repeated T-RFLP analysis of 16S gene amplification using the same DNA extracts from pooled samples.
The information index (Shannon and Weaver (1963) “The Mathematical Theory of Communication,” p. 117, University of Illinois Press, Urbana, Ill.) was used to initially evaluate the diversity of the microbial communities. [formula] Where n is possible categories in a data set and that their proportions are pi, . . . , pn. The H values are the measure of diversity for this system. […]

[3] = system: bacterial flora of the chicken ileum; assay: 16S rDNA clone library analysis of the ileal bacterial community of chickens fed diets with feed additives; type: in vivo
[4] = pigs, 50 ppm, compared to controls; cited from earlier work
[5] = ileum, 7 days of age, 16S rDNA clone library
[6] = ileum, 28 days of age, 16S rDNA clone library
[7] = vs control fed the same feed without the antibiotic

What does the source list for `CC[C@@]1([C@@H]2O[C@@H]([C@H]3O[C@@](O)(CO)[C@H](C)C[C@@H]3C)C[C@@H]2C)CC[C@H]([C@]2(C)CC[C@]3(C[C@H](O)[C@@H](C)[C@@H]([C@@H](C)[C@@H](OC)[C@H](C)C(=O)O)O3)O2)O1` [Monensin, monensin]?
cecum flora: Actinobacterium (cecum flora): 43%; cecum flora: Bacteroides (cecum flora): 1%; cecum flora: Clostridium spp. (cecum flora): 27%; cecum flora: Eubacterium (cecum flora): 12%; cecum flora: Lactobacillus spp. (cecum flora): 6%; cecum flora: Ruminococcus (cecum flora): 10%; decrease of relative numbers of Lachnospira multiparus-like organisms [1]: about 2 fold; main bacterial composition present in TRFLP peaks in ileum ([2]; 3 day): Enterococcus sp; also recorded: E. coli; main bacterial composition present in TRFLP peaks in ileum ([2]; 7 day): C. irregularis; also recorded: C. lituseburense; also recorded: L. acidophilus; main bacterial composition present in TRFLP peaks in ileum ([2]; 14 day): C. lituseburense; also recorded: C. irregularis; also recorded: Clostridium sp; also recorded: L. crispatus; main bacterial composition present in TRFLP peaks in ileum ([2]; 21 day): C. irregularis; also recorded: C. lituseburense; also recorded: L. crispatus; main bacterial composition present in TRFLP peaks in ileum ([2]; 28 day): C. irregularis; also recorded: L. crispatus; also recorded: L. reuteri; main bacterial composition present in TRFLP peaks in ileum ([2]; 49 day): C. lituseburense; also recorded: L. crispatus; inhibition of C. irregularis ([2]; chicken ileum): not inhibited; Clostridiales, % peak areas ([2]; ileum, 7 days of age): 92.89%; Lactobacillaceae, % peak areas ([2]; ileum, 7 days of age): 7.1%; Clostridiales, % peak areas ([2]; ileum, 28 days of age): 73.2%; Lactobacillaceae, % peak areas ([2]; ileum, 28 days of age): 27.2%; relative peak areas of Lactobacillus ([2]; ileum, whole group (control 73.22%)): 19.25%; ileum flora: Clostridium spp. ([3]; 3 d): 1 [17] %; ileum flora: L. crispatus ([3]; 3 d): 1 [4] %; ileum flora: L. salivarius ([3]; 3 d): 1%; ileum: Clostridiaceae ([3]; 3 d): 2 [17] %; ileum: Enterococcus ([3]; 3 d): 9 [3] %; ileum: Lactobacillus spp. ([3]; 3 d): 3 [60] %; ileum: α-Proteobacteria ([3]; 3 d): 1 [1] %; ileum: β-Proteobacteria ([3]; 3 d): 3 [5] %; ileum: δ-Probeobacteria ([3]; 3 d): 82 [2] %; ileum flora: C. irregularis ([3]; 7 d): 45%; ileum flora: C. lituseburense ([3]; 7 d): 24%; ileum flora: Clostridium spp. ([3]; 7 d): 13 [1] %; ileum flora: L. acidophilus ([3]; 7 d): 4 [57] %; ileum flora: L. crispatus ([3]; 7 d): 4 [1] %; ileum flora: L. reuteri ([3]; 7 d): 3%; ileum: Clostridiaceae ([3]; 7 d): 84 [1] %; ileum: Enterococcus ([3]; 7 d): 3 [16] %; ileum: Lactobacillus spp. ([3]; 7 d): 11 [64] %; ileum flora: C. lituseburense ([3]; 14 d): 31%; ileum flora: L. crispatus ([3]; 14 d): 17 [8] %; ileum: Bifidobacter ([3]; 14 d): 2%; ileum: Clostridiaceae ([3]; 14 d): 44 [7] %; ileum: Enterococcus ([3]; 14 d): 33 [13] %; ileum: Lactobacillus spp. ([3]; 14 d): 21 [64] %; ileum flora: C. irregularis ([3]; 21 d): 19%; ileum flora: C. lituseburense ([3]; 21 d): 22%; ileum flora: L. crispatus ([3]; 21 d): 19 [3] %; ileum flora: L. salivarius ([3]; 21 d): 7 [5] %; ileum: Bacteroides ([3]; 21 d): 2 [3] %; ileum: Clostridiaceae ([3]; 21 d): 47 [9] %; ileum: Enterococcus ([3]; 21 d): 11 [3] %; ileum: Lactobacillus spp. ([3]; 21 d): 27 [66] %; ileum flora: C. irregularis ([3]; 28 d): 53%; ileum flora: C. lituseburense ([3]; 28 d): 7%; ileum flora: Clostridium spp. ([3]; 28 d): 1 [6] %; ileum flora: L. crispatus ([3]; 28 d): 17 [75] %; ileum flora: L. reuteri ([3]; 28 d): 11 [7] %; ileum flora: L. salivarius ([3]; 28 d): 2 [2] %; ileum: Bacillus ([3]; 28 d): 1%; ileum: Clostridiaceae ([3]; 28 d): 62 [7] %; ileum: Enterococcus ([3]; 28 d): 1 [3] %; ileum: Lactobacillus spp. ([3]; 28 d): 32 [88] %; ileum: Streptococcus ([3]; 28 d): 1 [1] %; ileum flora: C. irregularis ([3]; 49 d): 3%; ileum flora: C. lituseburense ([3]; 49 d): 42%; ileum flora: Clostridium spp. ([3]; 49 d): 1 [19] %; ileum flora: L. aviaries ([3]; 49 d): 16%; ileum flora: L. crispatus ([3]; 49 d): 20 [36] %; ileum flora: L. reuteri ([3]; 49 d): 5 [1] %; ileum flora: L. salivarius ([3]; 49 d): 3 [28] %; ileum: Bacillus ([3]; 49 d): 5 [4] %; ileum: Bacteroides ([3]; 49 d): 1 [1] %; ileum: Clostridiaceae ([3]; 49 d): 46 [19] %; ileum: Enterococcus ([3]; 49 d): 5 [2] %; ileum: Lactobacillus spp. ([3]; 49 d): 45 [70] %; ileum: Streptococcus ([3]; 49 d): 5%; Clostridiales, % of seq [3, 5]: 82.4%; Enterococcus/Streptococcus, % of seq [3, 5]: 2.7%; Lactobacillaceae, % of seq [3, 5]: 12.9%; Proteobacteria α, % of seq [3, 5]: 1.35%; Bacillaceae, % of seq [3, 6]: 1.05%; Clostridiales, % of seq [3, 6]: 63.2%; Enterococcus/Streptococcus, % of seq [3, 6]: 2.1%; Lactobacillaceae, % of seq [3, 6]: 31.6%; Proteobacteria α, % of seq [3, 6]: 2.1%; clostridial sequences [3, 7]: increased; overall numbers of Lactobacillus sequences [3, 7]: reduced

With virginiamycin as the compound, how does the “Lactobacillus species in the ileum vs controls” value ([3]; 28 and 49 days of age) read?
Its value is “significantly fewer”.

What about the “enhancement in feed conversion” value [4] of the same compound?
The value was 7%.

And the “improvement in growth rate” value [4]?
The value was 10%.
